Here are results for 4 compounds from patent US20110046225A1, “Pharmaceutical formulation containing palmitoyl ethanolamide and stearoyl ethanolamide” (VERMONT ITALIA SRL, priority 2008, published 2011).

One may read the inhibition as the share of the control response that was lost under treatment.

Data set [1] relates to RBL-2H3 cells. The data set can be described thus: inhibition of β-hexosaminidase release in IgE/DNP-stimulated RBL-2H3 mastocyte cells. Particulars: stimulated RBL-2H3 cells, culture medium; for INHIBITION OF β-HEXOSAMINIDASE RELEASE (% on test): 10 μM. In kind it is cell-based. From the text: More specifically, a RBL-2H3 mastocyte cell line was used to express high-affinity receptors for the IgE immunoglobulins. The interaction of the antigens with the IgE molecules present on the cell surface stimulates secretion by said cells of the pro-inflammatory contents of their intracytoplasmic granules, amongst which significant quantities of: histamine, leukotrienes, prostaglandins and TNF-alfa. The RBL-2H3 therefore represent an excellent cell module for the study of the mechanisms of exocytosis and release of the inflammatory mediators and of the relative modulation, as the case may be. In particular, measurement of the activity by the β-hexosaminidase enzyme was performed, the release of which correlates positively with the secretion of very strong pro-inflammatory mediators such as histamine and TNF-alfa. As already specified, a RBL-2H3 mastocyte cell line was used to express high-affinity receptors for the IgE immunoglobulins, whilst the assessment of cell vitality was recorded by way of the MTT method. The RBL-2H3 cell culture was started with a density amounting to 20,000 cells/well (96 wells) and incubated with IgE-anti-DNP. After about one hour, the antigen (DNP) was introduced into the culture, then after another 30 minutes the culture medium was harvested. Measurement of the activity by the β-hexosaminidase enzyme was performed on the harvested […], the release of which correlated positively with the secretion of very strong pro-inflammatory mediators such as histamine and TNF-alfa. A reduction of the enzymatic activities in the culture medium signifies minor cell degranulation and thus […]. The molecules according to the patent application herein were solubilised in DMSO and both added in variable concentrations to the cell cultures 1 hour prior to the introduction of the antigen.

Data set [2] has as its target receptor GPR55 (Homo sapiens, UniProt Q9Y2T6). Particulars: Ryberg et al. 2007; cited from earlier work.
The conditions of data set [3]: cited from earlier work.
For data set [4] the following is noted: U.S. Pat. No. 5,990,170; 5,679,667; 5,506,224; cited from earlier work.

Chain of receptor GPR55 (Q9Y2T6 whole entry): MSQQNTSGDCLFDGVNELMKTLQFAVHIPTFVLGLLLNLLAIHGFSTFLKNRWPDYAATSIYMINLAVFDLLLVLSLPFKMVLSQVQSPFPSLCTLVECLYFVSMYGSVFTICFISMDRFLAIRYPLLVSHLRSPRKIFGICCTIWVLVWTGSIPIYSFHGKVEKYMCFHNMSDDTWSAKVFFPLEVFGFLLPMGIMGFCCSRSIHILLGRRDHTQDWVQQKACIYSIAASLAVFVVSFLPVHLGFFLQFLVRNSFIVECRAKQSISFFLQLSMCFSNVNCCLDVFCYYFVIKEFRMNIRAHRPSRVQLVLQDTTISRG

Consider `C[C@@H]1C[C@H]2[C@@H]3CCC4=CC(=O)C=C[C@]4(C)[C@@]3(F)[C@@H](O)C[C@]2(C)[C@@]1(O)C(=O)CO` [Desametazone, reference compound], for which the “INHIBITION OF β-HEXOSAMINIDASE RELEASE (% on test)” value in data set [1] came out at 40.2%.
For `CCCCCCCCCCCCCCCC(=O)NCCO` [Palmitoyl ethanolamide (PEA), palmitoyl ethanolamide], the inhibition at 10 µM in data set [1] (Rattus norvegicus, read-out: INHIBITION OF β-HEXOSAMINIDASE RELEASE (% on test)) stood at 23.6%. In addition, in data set [2], the “affinity for GPR55” value is “nano-mole affinity array”.
For `CCCCCCCCCCCCCCCCCC(=O)NCCO` [Stearoyl ethanolamide (SEA), Stearoyl ethanolamide], the “solubility in aqueous environments” value in data set [3] is “extremely scarce”. In addition, the “INHIBITION OF β-HEXOSAMINIDASE RELEASE (% on test)” value in data set [1] worked out at 25.3%. In data set [4], the “anti-inflammatory activity relative to PEA” value is recorded as “much less active than the lower homologue PEA”.
Take `CCCCCc1cc(O)c2c(c1)OC(C)(C)[C@@H]1CCC(C)=C[C@@H]21` [THC, delta-9-tetrahydrocannabinol, reference compound]: in data set [2], the “affinity for GPR55” value was “nano-mole affinity array”.
